Measured values: patent US12240846B2 (Enliven Inc., priority 2020, dated 2025)

Key:
K562 cells = test: K562 cell proliferation assay (CellTiter-Glo); format: cell-based; settings: Homo sapiens, K562 cell viability, 72 hours, read-out: Cell Line (IC50, nM) K562
Description: (§1) K562 and HL60 Cell Proliferation Assay
(§2) K562 and HL60 cells, cultured in Iscove's Modified Dulbecco's Media (IMDM) supplemented with 10% FBS, were harvested at 50-80% confluency and plated at 2,000 cells per well (K562) or 1,500 cells per well (HL60) in 384-well tissue culture plates. A subset of wells contained media only (low control, LC). […] The plates were placed in a 37° C. incubator with 5% CO2 for 72 hours. Cell viability was measured using a CellTiter-Glo luminescent cell viability assay (Promega), which allows for relative quantification of metabolically active cells by luminescence-based measurements of intracellular ATP concentrations. Briefly, plates were removed from the incubator and equilibrated for 15 minutes at room temperature prior to the addition of 40 μL of CellTiter-Glo reagent. Plates were then incubated for 30 minutes at room temperature. Luminescence was measured using an EnSpire plate reader (Perkin Elmer). As noted above, luminescence values from wells with DMSO only or media without cells were used as high and low controls (HC and LC), respectively. Normalized percent viability was calculated as follows: percent viability=100×(Lumsample−LumLC)/(LumHC−LumLC).

HL60 cells = test: HL60 cell proliferation assay (CellTiter-Glo); format: cell-based; settings: Homo sapiens, HL-60, HL60 cell viability, 72 hours, read-out: Cell Line (IC50, nM) HL60
Description: as §1, §2

ABL1 = target: T1, ABL1 (Homo sapiens, UniProt P00519); test: Luminescence-based ABL kinase assay (300 μM ATP), ADP-Glo; format: biochemical
T1 construct: purchased Carna Biosciences
From the text: Compounds were serially diluted in DMSO. […] Luminescence signal positively correlates with kinase activity.

ABL1 (T315I) = ABL1 (T315I) (Homo sapiens, UniProt P00519, T315I); test: as above; format: biochemical
Description: Kinase activity of ABL1 was measured using the ADP-Glo system (Promega), which measures formation of ADP using a luminescence-based method. Compounds were serially diluted in DMSO. 20 nL of compound or DMSO only (high control, HC) were added to a 384-well plate (OptiPlate-384. PerkinElmer) using an Echo550 liquid handler (Labcyte). 15 μL of kinase solution (10 mM MgCl2, 0.01% Brij-35, 2 mM DTT, 0.05% BSA, 1 mM EGTA, 50 mM HEPES pH 7.5, and 3.325 nM ABL1 [Carna Biosciences]) were added to each well of the 384-well plate containing the compounds. No enzyme control wells were included (low control, LC). The plate was incubated at room temperature for 30 minutes. 5 μL of a second solution containing 10 mM MgCl2, 0.01% Brij-35, 2 mM DTT, 0.05% BSA, 1 mM EGTA, 50 mM HEPES pH 7.5, 6 μM Peptide 2 (Perkin Elmer, Cat No 760346), and 1.2 mM ATP were added to each well to start the kinase reaction. The plate was incubated for 90 minutes at room temperature. 20 μL of ADP-Glo reagent (Promega) were then added to each well and the plate was incubated for 40 minutes at room temperature. 40 μL of kinase detection reagent (Promega) was added to each well and the plate was incubated for an additional 45 minutes at room temperature. During this step, ADP was converted to ATP, a substrate for luciferase, to produce luminescence signal. Luminescence was measured on an Envision plate reader (Perkin Elmer). Luminescence signal positively correlates with kinase activity. The percent kinase activity was calculated as follows: percent kinase activity=100×(Lumsample−LumLC)/(LumHC−LumLC). As noted above, DMSO only and no enzyme wells were used as high and low controls, respectively. IC50 values were calculated using the XLFit software.

Structure (SMILES) | IC50 (K562 cells) [nM] | IC50 (HL60 cells) [nM] | IC50 (ABL1) [nM] | IC50 (ABL1 (T315I)) [nM]
COc1ncc(F)c(OC)c1-c1cc2cc(NC(=O)NCCN3CCNCC3)ncc2n1C [Compound 82, 3-[2-(5-fluoro-2,4-dimethoxypyridin-3-yl)-1-methylpyrrolo[2,3-c]pyridin-5-yl]-1-[2-(piperazin-1-yl)ethyl]urea formic acid] | 125 | > 10000 | 31.6 | 88.1
CCN1CCN(CCNC(=O)Nc2cc3cc(-c4c(OC)ccnc4OC)n(C)c3cn2)CC1 [Compound 83, 3-[2-(2,4-dimethoxypyridin-3-yl)-1-methylpyrrolo[2,3-c]pyridin-5-yl]-1-[2-(4-ethylpiperazin-1-yl)ethyl]urea formic acid] | 160 | > 10000 | 106 | 230
COc1ncnc(OC2CC2)c1-c1cc2cc(NC(=O)[C@@H]3C[C@@H]3F)ncc2n1C [Compound 85, (1S,2S)-N-[2-(4-cyclopropoxy-6-methoxypyrimidin-5-yl)-1-methylpyrrolo[2,3-c]pyridin-5-yl]-2-fluorocyclopropane-1-carboxamide] | 16.5 | 1710 | 4.33 | 147
COc1ccnc(C)c1-c1cc2cc(NC(=O)[C@@H]3C[C@@H]3F)ncc2n1C [Compound 86, (1S,2S)-2-fluoro-N-(2-(4-methoxy-2-methylpyridin-3-yl)-1-methyl-1H-pyrrolo[2,3-c]pyridin-5-yl)cyclopropane-1-carboxamide] | 700 | > 10000 | 200 | 2930
CCN1CCN(CCNC(=O)Nc2cc3cc(-c4c(OC)cccc4OC)n(C)c3cn2)CC1 [Compound 87, 1-(2-(2,6-dimethoxyphenyl)-1-methyl-1H-pyrrolo[2,3-c]pyridin-5-yl)-3-(2-(4-ethylpiperazin-1-yl)ethyl)urea] | 78.5 | > 10000 | 35 | 76.6
[2H]C([2H])([2H])Oc1ncc(F)cc1-c1cc2cc(NC(=O)[C@@H]3C[C@@H]3F)ncc2n1C([2H])([2H])[2H] [Compound 88, (1S,2S)-2-fluoro-N-(2-(5-fluoro-2-(methoxy-d3)pyridin-3-yl)-1-(methyl-d3)-1H-pyrrolo[2,3-c]pyridin-5-yl)cyclopropane-1-carboxamide] | 166 | 5150 | 409 | 459
COc1nccc(F)c1-c1cc2cc(NC(=O)[C@@H]3C[C@@H]3F)ncc2n1C [Compound 89, (1S,2S)-2-fluoro-N-[2-(4-fluoro-2-methoxypyridin-3-yl)-1-methylpyrrolo[2,3-c]pyridin-5-yl]cyclopropane-1-carboxamide] | 153 | 2110 | 76.6 | 15
CCc1ncnc(OC)c1-c1cc2cc(NC(=O)[C@@H]3C[C@@H]3F)ncc2n1C [Compound 92, (1S,2S)-N-[2-(4-ethyl-6-methoxypyrimidin-5-yl)-1-methylpyrrolo[2,3-c]pyridin-5-yl]-2-fluorocyclopropane-1-carboxamide] | 227 | > 10000 | 494 | 1650
COc1ncnc(OC)c1-c1cc2cc(NC(=O)[C@H]3C[C@H]3F)ncc2n1C [Compound 94, (1R,2R)-N-[2-(4,6-dimethoxypyrimidin-5-yl)-1-methylpyrrolo[2,3-c]pyridin-5-yl]-2-fluorocyclopropane-1-carboxamide] | 79.4 | 9640 | 57.4 | 127
COc1ccnc(OC)c1-c1cc2cc(NC(=O)[C@H]3C[C@H]3F)ncc2n1C [Compound 97, (1R,2R)-N-[2-(2,4-dimethoxypyridin-3-yl)-1-methylpyrrolo[2,3-c]pyridin-5-yl]-2-fluorocyclopropane-1-carboxamide] | 91.5 | 3320 | 36.6 | 76.4
COc1ncnc(OC)c1-c1cc2cc(NC(=O)[C@@H]3C[C@@H]3F)ncc2[nH]1 [Compound 99, (1S,2S)-N-(2-(4,6-dimethoxypyrimidin-5-yl)-1H-pyrrolo[2,3-c]pyridin-5-yl)-2-fluorocyclopropane-1-carboxamide] | 396 | > 10000 | 111 | > 10000
CNc1nc(OC)c(-c2cc3cc(NC(=O)[C@@H]4C[C@@H]4F)ncc3n2C)c(OC)n1 [Compound 105, (1S,2S)-N-(2-(4,6-dimethoxy-2-(methylamino)pyrimidin-5-yl)-1-methyl-1H-pyrrolo[2,3-c]pyridin-5-yl)-2-fluorocyclopropane-1-carboxamide] | 60.9 | 199 | 71.4 | 79
COc1ncnc(O)c1-c1cc2cc(NC(=O)[C@@H]3C[C@@H]3F)ncc2n1C [Compound 106, (1S,2S)-2-fluoro-N-[2-(4-hydroxy-6-methoxypyrimidin-5-yl)-1-methylpyrrolo[2,3-c]pyridin-5-yl]cyclopropane-1-carboxamide] | > 10000 | > 10000 | 1690 | > 10000
COc1cnnc(OC)c1-c1cc2cc(NC(=O)[C@@H]3C[C@@H]3F)ncc2n1C [Compound 107, (1S,2S)-N-[2-(3,5-dimethoxypyridazin-4-yl)-1-methylpyrrolo[2,3-c]pyridin-5-yl]-2-fluorocyclopropane-1-carboxamide] | 40.5 | 2550 | 17.4 | 94.6
COc1nc(O)nc(OC)c1-c1cc2cc(NC(=O)[C@@H]3C[C@@H]3F)ncc2n1C [Compound 108, (1S,2S)-2-fluoro-N-(2-(2-hydroxy-4,6-dimethoxypyrimidin-5-yl)-1-methyl-1H-pyrrolo[2,3-c]pyridin-5-yl)cyclopropane-1-carboxamide] | 736 | > 10000 | 6.32 | 12.4
CCc1ncccc1-c1cc2cc(NC(=O)[C@@H]3C[C@@H]3F)ncc2n1C [Compound 112, (1S,2S)-N-[2-(2-ethylpyridin-3-yl)-1-methylpyrrolo[2,3-c]pyridin-5-yl]-2-fluorocyclopropane-1-carboxamide] | 1780 | > 10000 | 1320 | 564
COc1ncnc(C)c1-c1cc2cc(NC(=O)[C@@H]3C[C@@H]3F)ncc2n1C [Compound 113, (1S,2S)-2-fluoro-N-[2-(4-methoxy-6-methylpyrimidin-5-yl)-1-methylpyrrolo[2,3-c]pyridin-5-yl]cyclopropane-1-carboxamide] | 314 | > 10000 | 84.4 | 366
CCOc1nccc(C)c1-c1cc2cc(NC(=O)[C@@H]3C[C@@H]3F)ncc2n1C [Compound 114, (1S,2S)-N-[2-(2-ethoxy-4-methylpyridin-3-yl)-1-methylpyrrolo[2,3-c]pyridin-5-yl]-2-fluorocyclopropane-1-carboxamide] | 257 | > 10000 | 77 | 546
Cn1c(-c2cccnc2OC2CC2)cc2cc(NC(=O)[C@@H]3C[C@@H]3F)ncc21 [Compound 115, (1S,2S)-N-[2-(2-cyclopropoxypyridin-3-yl)-1-methylpyrrolo[2,3-c]pyridin-5-yl]-2-fluorocyclopropane-1-carboxamide] | 80.8 | 1550 | 18.5 | 469
Cn1c(-c2cnccc2OC2CC2)cc2cc(NC(=O)[C@@H]3C[C@@H]3F)ncc21 [Compound 116, (1S,2S)-N-[2-(4-cyclopropoxypyridin-3-yl)-1-methylpyrrolo[2,3-c]pyridin-5-yl]-2-fluorocyclopropane-1-carboxamide] | 256 | 9310 | 66.9 | 1190
Cn1c(-c2ccncc2OC2CC2)cc2cc(NC(=O)[C@@H]3C[C@@H]3F)ncc21 [Compound 117, (1S,2S)-N-[2-(3-cyclopropoxypyridin-4-yl)-1-methylpyrrolo[2,3-c]pyridin-5-yl]-2-fluorocyclopropane-1-carboxamide] | 141 | 4180 | 43.3 | 662
COc1ncnc(OC)c1-c1cc2cc(NC(=O)C3CC3)ncc2n1C [Compound 118, N-[2-(4,6-dimethoxypyrimidin-5-yl)-1-methylpyrrolo[2,3-c]pyridin-5-yl]cyclopropanecarboxamide] | 71.4 | 929 | 35.3 | 108
COc1cccc(OC)c1-c1cc2cc(NC(=O)[C@@H]3C[C@@H]3F)ncc2n1C [Compound 119, (1S,2S)-N-[2-(2,6-dimethoxyphenyl)-1-methylpyrrolo[2,3-c]pyridin-5-yl]-2-fluorocyclopropane-1-carboxamide] | 9.35 | 159 | 2.38 | 1.76
COc1nc(C)ncc1-c1cc2cc(NC(=O)[C@@H]3C[C@@H]3F)ncc2n1C [Compound 141, (1S,2S)-2-fluoro-N-[2-(4-methoxy-2-methylpyrimidin-5-yl)-1-methylpyrrolo[2,3-c]pyridin-5-yl]cyclopropane-1-carboxamide] | 381 | > 10000 | 316 | 1990
